Measured values taken from US20050148631A1, “Amino heterocyclyl inhibitors of 11-beta-hydroxy steroid dehydrogenase type 1” (AGOURON PHARMACEUTICALS, INC., priority 2003, published 2005).
Where two headings read alike, the source gives them in different places.

Tests used:
11β-hsd-1 enzyme [1] = target: T1, 11β-hsd-1 enzyme (Homo sapiens, UniProt P28845); test: 11β-hsd-1 enzyme assay, percentage of inhibition (3H-cortisone to cortisol, radio-HPLC); assay type: biochemical; settings: read-out: % inh @ 0.1 uM
11β-hsd-1 enzyme [2] = target: T1, 11β-hsd-1 enzyme; test: 11β-hsd-1 enzyme assay, Kiapp determination (3H-cortisone to cortisol, radio-HPLC); assay type: biochemical; settings: read-out: Ki app

T1 sequence (P28845 whole entry, species assumed): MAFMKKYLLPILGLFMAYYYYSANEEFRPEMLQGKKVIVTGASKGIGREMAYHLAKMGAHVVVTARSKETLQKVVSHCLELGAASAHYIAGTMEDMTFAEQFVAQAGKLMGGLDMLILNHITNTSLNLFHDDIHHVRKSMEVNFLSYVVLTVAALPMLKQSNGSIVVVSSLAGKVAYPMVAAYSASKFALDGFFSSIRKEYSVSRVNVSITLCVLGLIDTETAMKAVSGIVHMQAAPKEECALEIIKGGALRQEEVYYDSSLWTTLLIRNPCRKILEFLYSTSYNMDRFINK

Row | inhibition at 0.1 µM (11β-hsd-1 enzyme [1]; 0.1 uM) [%] | SMILES | also measured
1 | 90.4 | Cc1cccc(NS(=O)(=O)c2ccc(-c3ccc(OCc4ccccc4)cc3)cc2)n1 [Example 159] | –
2 | 53 | CCOc1ccccc1-c1ccc(S(=O)(=O)Nc2cccc(C)n2)c(C)c1 [Example 188] | –
3 | 71 | Cc1cccc(NS(=O)(=O)c2ccc(-c3ccc(S(C)(=O)=O)cc3)cc2)n1 [Example 158] | –
4 | 37.2 | Cc1c(Cl)cccc1S(=O)(=O)Nc1cccc(CO)n1 [Example 116] | –
5 | 100 | Cc1cccc(NS(=O)(=O)c2ccc(-c3ccc(C(F)(F)F)cc3)cc2)n1 [Example 157] | –
6 | 83.3 | Cc1cccc(NS(=O)(=O)c2ccc(-c3cccc(COc4ccccc4)c3)cc2)n1 [Example 155] | –
7 | 72.7 | Cc1cccc(NS(=O)(=O)c2ccc(-c3cc(F)c(F)c(F)c3)cc2)n1 [Example 152] | –
8 | 59 | Cc1cccc(NS(=O)(=O)c2ccc(-c3ccc(C(C)(C)C)cc3)cc2C)n1 [Example 175] | –
9 | 61.7 | Cc1cccc(NS(=O)(=O)c2ccc(-c3cccc(C#N)c3)cc2)n1 [Example 132] | –
10 | 80.6 | Cc1cccc(NS(=O)(=O)c2ccc(-c3cc(F)cc(F)c3)cc2)n1 [Example 145] | –
11 | 37.9 | CSc1ccccc1-c1ccc(S(=O)(=O)Nc2cccc(C)n2)cc1 [Example 139] | –
12 | 46.5 | Cc1cccc(NS(=O)(=O)c2ccc(-c3ccc(CO)cc3)cc2)n1 [Example 146] | –
13 | 57.2 | CC(=O)c1cccc(-c2ccc(S(=O)(=O)Nc3cccc(C)n3)cc2)c1 [Example 148] | –
14 | 89.9 | Cc1cccc(NS(=O)(=O)c2ccc(-c3ccc(F)c(Cl)c3)cc2)n1 [Example 123] | –
15 | 84 | Cc1ccc(-c2ccc(S(=O)(=O)Nc3cccc(C)n3)cc2)cc1 [Example 124] | –
16 | 15 | Cc1cccc(NS(=O)(=O)c2cnn(-c3ccccc3)c2C)n1 [Example 99] | –
17 | 100 | Cc1cccc(NS(=O)(=O)c2ccc(-c3cc(Cl)cc(Cl)c3)cc2)n1 [Example 131] | –
18 | 78.9 | Cc1cccc(NS(=O)(=O)c2ccc(-c3cccc(C(F)(F)F)c3)cc2)n1 [Example 130] | –
19 | 65.6 | COc1c(C)cc(-c2ccc(S(=O)(=O)Nc3cccc(C)n3)cc2)cc1C [Example 156] | –
20 | 61.4 | CCOc1cccc(-c2ccc(S(=O)(=O)Nc3cccc(C)n3)cc2)c1 [Example 121] | –
21 | 100 | C=Cc1ccc(-c2ccc(S(=O)(=O)Nc3cccc(C)n3)cc2)cc1 [Example 127] | –
22 | 5.4 | Cc1cc(C)c2ccc(NS(=O)(=O)c3ccc(-c4ccc(C#N)cc4)cc3)nc2n1 [Example 106] | –
23 | 85.7 | Cc1cccc(NS(=O)(=O)c2ccc(-c3ccccc3C(F)(F)F)cc2)n1 [Example 122] | –
24 | 11.3 | Cc1c(Cl)cccc1S(=O)(=O)Nc1cccc(CCO)n1 [Example 114, 3-Chloro-N-[6-(2-hydroxy-ethyl)-pyridin-2-yl]-2-methyl-benzenesulfonamide] | –

The next lines start with the molecule.

Row | SMILES | inhibition at 0.1 µM (11β-hsd-1 enzyme [1]; 0.1 uM) [%] | also measured
25 | Cc1cccc(NS(=O)(=O)c2sc3ccc(Cl)cc3c2C)n1 [Example 46] | 98 | Ki (11β-hsd-1 enzyme [2]): 3.2 nM
26 | Cc1c(Cl)cccc1S(=O)(=O)Nc1cccc(CC(=O)N2CCOCC2)n1 [Example 8, 3-Chloro-2-methyl-N-[6-(2-morpholin-4-yl-2-oxo-ethyl)-pyridin-2-yl]-benzenesulfonamide] | 5.52 | –
27 | Cc1cccc(NS(=O)(=O)Cc2cccc(Cl)c2)n1 [Example 67] | 49.6 | –
28 | Cc1cccc(NS(=O)(=O)N2CCC(C#N)(c3ccccc3)CC2)n1 [Example 305] | – | inhibition at 0.1 µM (11β-hsd-1 enzyme [1]; compound at 0.1 uM): 1.1%
29 | Cc1c(Cl)cccc1S(=O)(=O)Nc1cccc(CC(=O)N2CCCC(C)(C)C2)n1 [Example 28] | 45.6 | –
30 | Cc1cccc(NS(=O)(=O)c2ccc3oc4ccccc4c3c2)n1 [Example 63] | 32.7 | –
31 | CCN(CC)C(=O)CCc1ccc(NS(=O)(=O)c2cccc(Cl)c2C)nc1 [Example 18] | 34.6 | –
32 | Cc1c(Cl)cccc1S(=O)(=O)Nc1cccc(CC(=O)N2CCCCC2)n1 [Example 9] | 54.8 | –
33 | COc1ccc(-c2ccc(S(=O)(=O)Nc3cccc(C)n3)cc2C)cc1F [Example 231] | – | inhibition at 0.1 µM (11β-hsd-1 enzyme [1]; compound at 0.1 uM): 63%
34 | Cc1c(Cl)cccc1S(=O)(=O)Nc1cccc(CC(=O)N2CCSCC2)n1 [Example 10] | 38.7 | –
35 | Cc1cccc(NS(=O)(=O)c2ccc(-c3c(C)cccc3C)c(C)c2)n1 [Example 241] | – | inhibition at 0.1 µM (11β-hsd-1 enzyme [1]; compound at 0.1 uM): 64%
36 | Cc1cccc(NS(=O)(=O)c2ccc(-c3ccc(CC(C)C)cc3)c(C)c2)n1 [Example 248] | – | inhibition at 0.1 µM (11β-hsd-1 enzyme [1]; compound at 0.1 uM): 57%
37 | Cc1cccc(NS(=O)(=O)c2ccc(-c3ccc(OCCN)cc3)cc2)n1 [Example 263, 4′-(2-Amino-ethoxy)-biphenyl-4-sulfonic acid (6-methyl-pyridin-2-yl)-amide] | – | inhibition at 0.1 µM (11β-hsd-1 enzyme [1]; compound at 0.1 uM): 11.8%
38 | Cc1cccc(NS(=O)(=O)c2cccc(C(F)(F)F)c2)n1 [Example 50] | 10.1 | –
39 | Cc1cc(C)nc(NS(=O)(=O)c2ccc(C(F)(F)F)cc2)c1 [Example 77] | 35.4 | –
40 | Cc1cccc(NS(=O)(=O)N2CCC(c3ccccc3)(c3ccccc3)CC2)n1 [Example 307] | – | inhibition at 0.1 µM (11β-hsd-1 enzyme [1]; compound at 0.1 uM): 29.5%
41 | CCN(CC)C(=O)Cc1cccc(NS(=O)(=O)c2ccc(F)cc2)n1 [Example 24] | 3.7 | –
42 | O=S(=O)(Nc1ccc2ccccc2n1)c1ccc(-c2ccccn2)cc1 [Example 287, 4-Pyridin-2-yl-N-quinolin-2-yl-benzenesulfonamide] | – | inhibition at 0.1 µM (11β-hsd-1 enzyme [1]; compound at 0.1 uM): 67.1%
43 | COc1ccc(S(=O)(=O)Nc2cccc(C)n2)cc1 [Example 81] | 23.4 | –
44 | Cc1cccc(NS(=O)(=O)c2ccc(-c3ccc4c(c3)OCCO4)c(C)c2)n1 [Example 245] | – | inhibition at 0.1 µM (11β-hsd-1 enzyme [1]; compound at 0.1 uM): 62%
45 | Cc1cccc(NS(=O)(=O)c2sc(C)nc2C)n1 [Example 98] | 8.9 | –
46 | Cc1cccc(NS(=O)(=O)c2ccccc2C(F)(F)F)n1 [Example 54] | 1 | –
47 | Cc1cccc(N(CCN(C)C)S(=O)(=O)c2ccc(-c3ccc(C#N)cc3)cc2)n1 [Example 265, 4′-Cyano-biphenyl-4-sulfonic acid (2-dimethylamino-ethyl)-(6-methyl-pyridin-2-yl)-amide] | – | inhibition at 0.1 µM (11β-hsd-1 enzyme [1]; compound at 0.1 uM): 11.4%
48 | Cc1cccc(NS(=O)(=O)c2ccc(-n3cccn3)cc2)n1 [Example 92] | 29.8 | –
49 | Cc1c(Cl)cccc1S(=O)(=O)Nc1cccc(CC(=O)N2CCCC2)n1 [Example 17] | 11.4 | –
50 | Cc1cccc(N(CCO)S(=O)(=O)c2ccc(-c3ccc(C#N)cc3)cc2)n1 [Example 266, 4′-Cyano-biphenyl-4-sulfonic acid (2-hydroxy-ethyl)-(6-methyl-pyridin-2-yl)-amide] | – | inhibition at 0.1 µM (11β-hsd-1 enzyme [1]; compound at 0.1 uM): 9.6%
51 | Cc1cccc(NS(=O)(=O)c2ccc(C#N)cc2)n1 [Example 90] | 24.8 | –

Row | SMILES | inhibition at 0.1 µM (11β-hsd-1 enzyme [1]; 0.1 uM) [%] | also measured
52 | Cc1c(Cl)cccc1S(=O)(=O)Nc1cccc(CC(=O)N(C)C(C)C)n1 [Example 30] | 15.9 | –
53 | Cc1c(Cl)cccc1S(=O)(=O)Nc1cccc(CC(=O)O)n1 [Example 26, [6-(3-Chloro-2-methyl-benzenesulfonylamino)-pyridin-2-yl]-acetic acid] | 25.2 | –
54 | CCN(CC)C(=O)Cc1cccc(NS(=O)(=O)c2ccc(C(F)(F)F)cc2)n1 [Example 21] | – | Ki (11β-hsd-1 enzyme [2]): 480 nM
55 | CCN(CC)C(=O)Cc1cccc(NS(=O)(=O)c2cccc(Cl)c2C)n1 [Example 20] | – | Ki (11β-hsd-1 enzyme [2]): 220 nM
56 | Cc1ccc(C)c(-c2ccc(S(=O)(=O)Nc3cccc(C)n3)cc2C)c1 [Example 240] | – | inhibition at 0.1 µM (11β-hsd-1 enzyme [1]; compound at 0.1 uM): 89%
57 | C=CCN(C)C(=O)Cc1cccc(NS(=O)(=O)c2cccc(Cl)c2C)n1 [Example 16] | 10.9 | –
58 | Cc1cccc(NS(=O)(=O)c2ccc(-c3ccc(C#N)cn3)cc2)n1 [Example 275] | – | inhibition at 0.1 µM (11β-hsd-1 enzyme [1]; compound at 0.1 uM): 85.7%
59 | Cc1cccc(NS(=O)(=O)c2ccc(N3CCOCC3)nc2)n1 [Example 83] | 11.1 | –
60 | Cc1cccc(-c2ccc(S(=O)(=O)Nc3cccc(C)n3)cc2C)c1 [Example 227] | – | inhibition at 0.1 µM (11β-hsd-1 enzyme [1]; compound at 0.1 uM): 40%
61 | Cc1cccc(NS(=O)(=O)N2CC(Oc3ccc(F)cc3)C2)n1 [Example 313] | – | inhibition at 0.1 µM (11β-hsd-1 enzyme [1]; compound at 0.1 uM): 27.2%
62 | Cc1cccc(NS(=O)(=O)c2ccc(-c3ccccc3C)c(C)c2)n1 [Example 218] | – | inhibition at 0.1 µM (11β-hsd-1 enzyme [1]; compound at 0.1 uM): 56%
63 | Cc1cccc(NS(=O)(=O)c2ccc(N3CCCCC3)nc2)n1 [Example 269, N-(6-methylpyridin-2-yl)-6-piperidin-1-ylpyridine-3-sulfonamide] | – | inhibition at 0.1 µM (11β-hsd-1 enzyme [1]; compound at 0.1 uM): 2.4%
64 | O=S(=O)(Nc1cccc(CN2CCOCC2)n1)c1ccc(-c2ccccc2)cc1 [Example 64] | 8.9 | –
65 | N#Cc1ccc(-c2ccc(S(=O)(=O)Nc3ccccn3)cc2)cc1 [Example 82] | 53.4 | –
66 | Cc1cccc(NS(=O)(=O)Cc2ccc(C(F)(F)F)cc2)n1 [Example 73] | 17.3 | –
67 | Cc1c(Cl)cccc1S(=O)(=O)Nc1cccc(CC(=O)N2CCC(F)(F)CC2)n1 [Example 32] | 20.4 | –
68 | Cc1cc(C)nc(NS(=O)(=O)c2sc(-c3ccccc3)nc2C)c1 [Example 97] | 31.7 | –
69 | Cc1c(Cl)cccc1S(=O)(=O)Nc1cccc(CC(=O)N(C)C)n1 [Example 31] | 11.3 | –
70 | Cc1c(Cl)cccc1S(=O)(=O)Nc1cccc(CC(=O)N2CCN(C)CC2)n1 [Example 11] | – | inhibition at 0.1 µM (11β-hsd-1 enzyme [1]): 8.05%
71 | Cc1cccc(NS(=O)(=O)c2ccc(C(C)(C)C)cc2)n1 [Example 52] | 32 | –
72 | Cc1cccc(NS(=O)(=O)c2ccc(-c3ccc(F)cc3C)c(C)c2)n1 [Example 242] | – | inhibition at 0.1 µM (11β-hsd-1 enzyme [1]; compound at 0.1 uM): 61%
73 | COc1ccc(-c2ccc(S(=O)(=O)Nc3cccc(C)n3)cc2C)cc1C [Example 243] | – | inhibition at 0.1 µM (11β-hsd-1 enzyme [1]; compound at 0.1 uM): 70%
74 | CCCCc1ccc(-c2ccc(S(=O)(=O)Nc3cccc(C)n3)cc2C)cc1 [Example 246] | – | inhibition at 0.1 µM (11β-hsd-1 enzyme [1]; compound at 0.1 uM): 65%
75 | Cc1cccc(NS(=O)(=O)c2ccc(-c3cccc(C#N)c3)c(C)c2)n1 [Example 220] | – | inhibition at 0.1 µM (11β-hsd-1 enzyme [1]; compound at 0.1 uM): 67%
76 | Cc1cccc(NS(=O)(=O)c2ccc(-c3ccc(S(C)(=O)=O)cc3)c(C)c2)n1 [Example 234] | – | inhibition at 0.1 µM (11β-hsd-1 enzyme [1]; compound at 0.1 uM): 57%
77 | Cc1cccc(NS(=O)(=O)c2cccc3ccccc23)n1 [Example 51] | 10.2 | –
